Columns and labels:
[1] = test system: Thymidine kinase (Human alphaherpesvirus 1); assay: Compound was evaluated for the inhibitory activity against HSV-1 encoded thymidine kinase at 300 uM; 45-56% inhibition
[2] = test system: Thymidine kinase (Human alphaherpesvirus 1); assay: Compound was evaluated for the inhibitory activity against HSV-1 encoded thymidine kinase at 300 uM

inhibition [1] [%]	inhibition [2] [%]	SMILES
45	–	O=C(OCCOCn1ccc(=O)[nH]c1=O)c1ccccc1
–	56	O=c1[nH]c(=O)n(COCCO)cc1C(F)(F)F
–	56	O=c1[nH]c(=O)n(COCCO)cc1I
